Converted amounts (≈) assume the structure as drawn.
Experiments:
[1] = tested on: Cryptococcus neoformans var. grubii clinical isolates and multi-azole resistant strains; assay: microbe, parasite or virus in culture; type: cell-based; details: E-test; for MIC range: 14 isolates (Nos. 1-14); for MIC: Cryptococcus neoformans
Description: Six isolates of cryptococcus were obtained from skin-infected cats and five from systemically infected cats, for a total of 11 strains.
(§1) Three isolates of cryptococcus were acquired from skin-infected humans.
(§2) All of the above-acquired isolates were Cryptococcus neoformans var. grubii strains (type A).
(§3) Further, as described below, 3 multidrug-resistant strains resistant to fluconazole (FLCZ) and voriconazole (VRCZ) as azole-based antifungal agents were acquired.
(§4) Thereafter, 12 colonies generated on the plate were inoculated on Sabouraud glucose agar medium containing 5 μg/ml of VRCZ. This was cultured at room temperature for 10 days, and the obtained colonies were further subcultured, to obtain 3 azole-based multidrug-resistant strains.
Sensitivity to fluconazole (FLCZ), itraconazole (ITCZ) and voriconazole (VRCZ) was evaluated using the E-test. […] E-test gradient strips were purchased from AB BIODISK. The MICs for FLCZ, ITCZ and VRCZ were determined after culturing at 35° C. for 72 hours. Each isolate was tested twice at shifted times, and each test included twice measurements.

[2] = tested on: Cryptococcus neoformans var. grubii clinical isolates and multi-azole resistant strains; assay: CLSI M27-A3 broth microdilution MIC assay; type: cell-based; details: for MIC: Cryptococcus neoformans
Description: Six isolates of cryptococcus were obtained from skin-infected cats and five from systemically infected cats, for a total of 11 strains. One strain of cat skin cryptococcus and one strain of cat systemic cryptococcus were fluconazole-resistant.
as §1, §2, §3
as §4, with “Clinically separated fluconazole (FLCZ) resistant Cryptococcus neoformans cells (2.3×10^5) were inoculated on Sabouraud glucose agar medium containing 3 μg/ml of voriconazole (VRCZ), and cultured at room temperature for 7 days. Thereafter,” for “Thereafter,”
The strains obtained in Example 1 were maintained on Sabouraud glucose agar medium until the test of sensitivity to antifungal compounds.
Sensitivity to ravuconazole (RVCZ) was determined according to the CLSI M27-A3 guideline using broth microdilution assay. The minimum inhibitory concentration (MIC) was measured after culturing at 35° C. for 72 hours. MIC was defined as the lowest concentration that induces significant inhibition of growth (inhibition of about 50% or more).
CLSI M27-A3 test and E-test MIC assay were performed using Candida parapsilosis ATCC 22019 and Candida kruzei ATCC 6258 purchased from ATCC as controls. As a result, a high correlation was observed between the MIC results of the azole-based drugs obtained in the CLSI M27-A3 test and the E-test, so the results of both were compared.

[3] = 72 h, Strain No. 1, Feline cutaneous cryptococcosis, 35° C.
[4] = 72 h, Strain No. 2, Feline systemic cryptococcosis, 35° C.
[5] = 72 h, Strain No. 3, Feline systemic cryptococcosis, 35° C.
[6] = 72 h, Strain No. 4, Feline cutaneous cryptococcosis, 35° C.
[7] = 72 h, Strain No. 5, Feline cutaneous cryptococcosis, 35° C.
[8] = 72 h, Strain No. 6, Feline systemic cryptococcosis, 35° C.
[9] = 72 h, Strain No. 7, Feline systemic cryptococcosis, 35° C.
[10] = 72 h, Strain No. 8 (FLCZ resistant strain), Feline systemic cryptococcosis, 35° C.
[11] = 72 h, Strain No. 9, Feline systemic cryptococcosis, 35° C.
[12] = 72 h, Strain No. 10, Feline cutaneous cryptococcosis, 35° C.
[13] = 72 h, Strain No. 11, Human cutaneous cryptococcosis, 35° C.
[14] = 72 h, Strain No. 12, Human cutaneous cryptococcosis, 35° C.
[15] = 72 h, Strain No. 13, Human cutaneous cryptococcosis, 35° C.
[16] = 72 h, Strain No. 14 (FLCZ resistant strain), Feline cutaneous cryptococcosis, 35° C.
[17] = 72 h, Strain No. 15, Multi-azole resistance strain, 35° C.
[18] = 72 h, Strain No. 16, Multi-azole resistance strain, 35° C.
[19] = 72 h, Strain No. 17, Multi-azole resistance strain, 35° C.
[20] = azole-based multidrug-resistant strains (Nos. 15-17)
[21] = read-out: average MIC, 14 isolates (Nos. 1-14)

Structure (SMILES)	MIC range [1]	MIC [1, 3]	MIC [1, 4]	MIC [1, 5]	MIC [1, 6]	MIC [1, 7]	MIC [1, 8]	MIC [1, 9]	MIC [1, 10]	MIC [1, 11]	MIC [1, 12]	MIC [1, 13]	MIC [1, 14]	MIC [1, 15]	MIC [1, 16]	MIC [1, 17]	MIC [1, 18]	MIC [1, 19]	MIC [1, 20]	MIC [1, 21]	further results
OC(Cn1cncn1)(Cn1cncn1)c1ccc(F)cc1F [FLCZ, fluconazole]	<0.016 to 128 µg/mL	3 µg/mL (≈ 9.8 µM)	< 0.016 µg/mL	6 µg/mL (≈ 19.6 µM)	16 µg/mL (≈ 52.2 µM)	32 µg/mL (≈ 104 µM)	2 µg/mL (≈ 6.53 µM)	1.5 µg/mL (≈ 4.9 µM)	> 256 µg/mL	1.5 µg/mL (≈ 4.9 µM)	14 µg/mL (≈ 45.7 µM)	1.5 µg/mL (≈ 4.9 µM)	1.5 µg/mL (≈ 4.9 µM)	0.75 µg/mL (≈ 2.45 µM)	128 µg/mL (≈ 418 µM)	> 256 µg/mL	> 256 µg/mL	> 256 µg/mL	> 256 µg/mL	17.3 µg/mL (≈ 56.5 µM)	–
CCC(C)n1ncn(-c2ccc(N3CCN(c4ccc(OCC5COC(Cn6cncn6)(c6ccc(Cl)cc6Cl)O5)cc4)CC3)cc2)c1=O (stereo not shown) [ITCZ, itraconazole]	<0.002 to 0.75 µg/mL	0.047 µg/mL (≈ 0.0666 µM)	0.002 µg/mL (≈ 0.00283 µM)	0.23 µg/mL (≈ 0.326 µM)	0.018 µg/mL (≈ 0.0255 µM)	0.5 µg/mL (≈ 0.709 µM)	0.064 µg/mL (≈ 0.0907 µM)	0.38 µg/mL (≈ 0.539 µM)	0.25 µg/mL (≈ 0.354 µM)	0.23 µg/mL (≈ 0.326 µM)	0.75 µg/mL (≈ 1.06 µM)	0.19 µg/mL (≈ 0.269 µM)	0.125 µg/mL (≈ 0.177 µM)	0.125 µg/mL (≈ 0.177 µM)	0.38 µg/mL (≈ 0.539 µM)	> 32 µg/mL	> 32 µg/mL	> 32 µg/mL	> 32 µg/mL	0.235 µg/mL (≈ 0.333 µM)	–
C[C@@H](c1nc(-c2ccc(C#N)cc2)cs1)[C@](O)(Cn1cncn1)c1ccc(F)cc1F [RVCZ, ravuconazole]	–	–	–	–	–	–	–	–	–	–	–	–	–	–	–	–	–	–	–	–	MIC range ([2]; 14 isolates (Nos. 1-14), CLSI M27-A3): <0.003125 to 0.25 µg/mL; MIC ([2]; 72 h, Strain No. 1, Feline cutaneous cryptococcosis, CLSI M27-A3, 35° C.): 0.0312 µg/mL (≈ 0.0714 µM); MIC ([2]; 72 h, Strain No. 2, Feline systemic cryptococcosis, CLSI M27-A3, 35° C.): 0.0312 µg/mL (≈ 0.0714 µM); MIC ([2]; 72 h, Strain No. 3, Feline systemic cryptococcosis, CLSI M27-A3, 35° C.): 0.0312 µg/mL (≈ 0.0714 µM); MIC ([2]; 72 h, Strain No. 4, Feline cutaneous cryptococcosis, CLSI M27-A3, 35° C.): 0.0625 µg/mL (≈ 0.143 µM); MIC ([2]; 72 h, Strain No. 5, Feline cutaneous cryptococcosis, CLSI M27-A3, 35° C.): 0.0625 µg/mL (≈ 0.143 µM); MIC ([2]; 72 h, Strain No. 6, Feline systemic cryptococcosis, CLSI M27-A3, 35° C.): 0.125 µg/mL (≈ 0.286 µM); MIC ([2]; 72 h, Strain No. 7, Feline systemic cryptococcosis, CLSI M27-A3, 35° C.): 0.0625 µg/mL (≈ 0.143 µM); MIC ([2]; 72 h, Strain No. 8 (FLCZ resistant strain), Feline systemic cryptococcosis, CLSI M27-A3, 35° C.): 0.125 µg/mL (≈ 0.286 µM); MIC ([2]; 72 h, Strain No. 9, Feline systemic cryptococcosis, CLSI M27-A3, 35° C.): 0.0312 µg/mL (≈ 0.0714 µM); MIC ([2]; 72 h, Strain No. 10, Feline cutaneous cryptococcosis, CLSI M27-A3, 35° C.): 0.125 µg/mL (≈ 0.286 µM); MIC ([2]; 72 h, Strain No. 11, Human cutaneous cryptococcosis, CLSI M27-A3, 35° C.): 0.0312 µg/mL (≈ 0.0714 µM); MIC ([2]; 72 h, Strain No. 12, Human cutaneous cryptococcosis, CLSI M27-A3, 35° C.): 0.0312 µg/mL (≈ 0.0714 µM); MIC ([2]; 72 h, Strain No. 13, Human cutaneous cryptococcosis, CLSI M27-A3, 35° C.): 0.0312 µg/mL (≈ 0.0714 µM); MIC ([2]; 72 h, Strain No. 14 (FLCZ resistant strain), Feline cutaneous cryptococcosis, CLSI M27-A3, 35° C.): 0.125 µg/mL (≈ 0.286 µM); MIC ([2]; 72 h, Strain No. 15, Multi-azole resistance strain, CLSI M27-A3, 35° C.): 0.5 µg/mL (≈ 1.14 µM); MIC ([2]; 72 h, Strain No. 16, Multi-azole resistance strain, CLSI M27-A3, 35° C.): 0.5 µg/mL (≈ 1.14 µM); MIC ([2]; 72 h, Strain No. 17, Multi-azole resistance strain, CLSI M27-A3, 35° C.): 0.25 µg/mL (≈ 0.571 µM); MIC ([2]; azole-based multidrug-resistant strains (Nos. 15-17), CLSI M27-A3): 0.25 to 0.5 µg/mL (≈ 0.571 to 1.14 µM); MIC ([2]; read-out: average MIC, 14 isolates (Nos. 1-14), CLSI M27-A3): 0.0376 µg/mL (≈ 0.0859 µM)
C[C@@H](c1ncncc1F)[C@](O)(Cn1cncn1)c1ccc(F)cc1F [VRCZ, voriconazole]	<0.002 to 0.125 µg/mL	0.008 µg/mL (≈ 0.0229 µM)	< 0.002 µg/mL	0.032 µg/mL (≈ 0.0916 µM)	0.064 µg/mL (≈ 0.183 µM)	–	0.047 µg/mL (≈ 0.135 µM)	0.032 µg/mL (≈ 0.0916 µM)	0.094 µg/mL (≈ 0.269 µM)	0.012 µg/mL (≈ 0.0344 µM)	0.023 µg/mL (≈ 0.0658 µM)	0.003 µg/mL (≈ 0.00859 µM)	0.006 µg/mL (≈ 0.0172 µM)	0.003 µg/mL (≈ 0.00859 µM)	0.023 µg/mL (≈ 0.0658 µM)	12 µg/mL (≈ 34.4 µM)	8 µg/mL (≈ 22.9 µM)	6 µg/mL (≈ 17.2 µM)	6 to 12 µg/mL (≈ 17.2 to 34.4 µM)	0.036 µg/mL (≈ 0.103 µM)	–

— patent US12121512B2, “Anti-fungal agent” (priority 2019, dated 2024)
